Assay results from US20230000816A1, “SODIUM-GLUCOSE LINKED TRANSPORTER INHIBITORS FOR THE MANAGEMENT OF CHRONIC KIDNEY DISEASE, HYPERTENSION, AND HEART FAILURE IN COMPANION ANIMALS” (INCREVET, INC., priority 2019, published 2023).

How the values were obtained:
cats with diabetes = experiment: Measures of renal health (creatinine, BUN, SDMA) in diabetic cats managed with bexagliflozin, MMRM analysis; format: in vivo, cat
Text: Venous blood specimens were collected at regular intervals and analyzed for standard parameters of interest for routine clinical care, including creatinine, BUN and SDMA. Owners were advised to provide a diet low in carbohydrates as an element of the disease management plan. An important consequence of the shift to a low carbohydrate diet is the increase in dietary protein (contributing to BUN) and specifically dietary muscle-derived protein (contributing to creatinine).
FIG. 6, FIG. 7 and FIG. 8 show the measured concentrations of creatinine, BUN and SDMA in cats as a function of time in the study. […] Considerable variation can be seen in the individual values.
To identify treatment-related trends, the data for each of the three analytes were analyzed by a mixed model repeated measures (MMRM) analysis of covariance, with cat as a categorical (class) effect and day of measurement and initial value at the baseline visit as continuous covariates. Because the diets of many of the animals were changed at the baseline visit, and the effects of diet on creatinine and BUN are generally thought to be prompt, the analysis considered only changes in analyte values over the non-baseline visit days.

purpose-bred beagles = experiment: Serum glucose after single oral dose and glucose challenge 1 h post-dose in dogs; format: in vivo, dog; conditions: mean ± SD; for Serum Glucose Concentration, 15 min / Serum Glucose Concentration, 30 min / Serum Glucose Concentration, 60 min / Serum Glucose Concentration, 120 min: after glucose challenge; for Serum Glucose Concentration, −60 min: before dosing; for Serum Glucose Concentration, 0 min: before glucose challenge (1 h post-dose)
Protocol: Groups of four purpose-bred beagles per cohort were administered ascending doses of bexagliflozin in the form of a proline co-crystal consisting of two moles of L-proline for every mole of bexagliflozin. The co-crystal was dissolved in 10% PEG400 and administered by oral gavage to dogs that had been fasted overnight. Control dogs were administered 10% PEG400. One hour after dosing, glucose solution (2 g kg^−1, 5 ml kg^−1) was administered by gavage. Serum glucose concentrations were quantitated by an automated clinical chemistry analyzer for samples collected before dosing, before glucose challenge, and 15, 30, 60, and 120 min after glucose challenge. Urine was collected from 0 to 4 h, 4 to 8 h and 8 to 24 h after dosing for electrolyte analyses (Na^+, K^+, Cl^− and Ca^2+) and glucose measurement. Whole blood samples of approximately 500 μL were collected from the cephalic vein 0, 0.25, 0.5, 1, 2, 4, 8, 12 and 24 h after dosing for pharmacokinetic analysis.

Sprague-Dawley rats = experiment: PPAR-γ agonist (pioglitazone)-mediated fluid retention / plasma expansion model, 7 days, drugs in drinking water; format: in vivo, rat
Text: It has been recognized in human clinical practice that an undesirable side effect of PPAR-γ agonists of the thiazolidinedione class is fluid retention and edema, which limits their use in patients with congestive heart failure. The mechanism of action of the thiazolidinediones is believed to be through stimulation of expression of the epithelial sodium channel (ENaC) in the kidney, resulting in an increased uptake of sodium ions from the distal tubule. Sodium retention and the associated expansion of extracellular fluid volume are characteristic features of congestive heart failure in multiple species. […] The sodium channel blocker amiloride was delivered in drinking water to a third group of rats as a comparator. Plasma expansion was measured by hematocrit. […] Food weight was recorded to measure consumption over the course of the experiment. […] Full bottles were pre-weighed and the weights recorded to allow consumption to be measured over the course of the experiment. On days 1 and 7, rats were warmed using a heating pad and lightly anesthetized using isoflurane. Using a sterile scalpel blade, a small tail nick was made on the distal one third of the tail. Blood was collected in a heparinized microcapillary tube sealed with putty at one end and stored on ice until centrifugation (5000 rpm, 5 min). Plasma volume was determined using a microhematocrit capillary tube reader card. On day 7, rats, food and water bottles were again weighed and recorded and hematocrits were determined using blood collected by a tail nick.

cats = experiment: Urinary glucose excretion in cats given bexagliflozin tablets; format: in vivo, cat
[1] = rats, day 1 to day 7, mean ± SEM
[2] = rats, pioglitazone diet, mean ± SEM
[3] = rats, relative to day 1, mean ± SEM

OC[C@H]1O[C@@H](c2ccc(Cl)c(Cc3ccc(OCCOC4CC4)cc3)c2)[C@H](O)[C@@H](O)[C@@H]1O [Bexagliflozin, (2S,3R,4R,5 S,6R)-2-(4-chloro-3-(4-(2-cyclopropoxyethoxy)benzyl)phenyl)-6-(hydroxymethyl)tetrahydro-2H-pyran-3,4,5-triol]
model-adjusted population mean BUN concentration (cats with diabetes; diabetic cats on bexagliflozin): 33.82 mg/dL | model-adjusted population mean SDMA concentration (cats with diabetes; diabetic cats on bexagliflozin): 19.10 µg/dL | model-adjusted population mean creatinine concentration (cats with diabetes; diabetic cats on bexagliflozin, non-baseline visits): 1.367 mg/dL | estimated coefficient for day of measurement, creatinine (cats with diabetes; diabetic cats, p<0.0001): 0.000928 | estimated coefficient for day of measurement, BUN (cats with diabetes; diabetic cats, p=0.0172): −0.01346 | estimated coefficient for day of measurement, SDMA (cats with diabetes; diabetic cats, p=0.5338, not significant): −0.0021 | Serum Glucose Concentration, 15 min (purpose-bred beagles; 0.02 mg kg^−1 oral): 122.13 ± 17.54 mg/dL | Serum Glucose Concentration, 30 min (purpose-bred beagles; 0.02 mg kg^−1 oral): 97.43 ± 6.87 mg/dL | Serum Glucose Concentration, 60 min (purpose-bred beagles; 0.02 mg kg^−1 oral): 93.29 ± 19.87 mg/dL | Serum Glucose Concentration, 120 min (purpose-bred beagles; 0.02 mg kg^−1 oral): 78.03 ± 10.98 mg/dL | Serum Glucose Concentration, −60 min (purpose-bred beagles; 0.02 mg kg^−1 oral, time relative to glucose challenge): 100.89 ± 3.49 mg/dL | Serum Glucose Concentration, 0 min (purpose-bred beagles; 0.02 mg kg^−1 oral): 95.94 ± 8.37 mg/dL | Serum Glucose Concentration, 15 min (purpose-bred beagles; 0.067 mg kg^−1 oral): 107.91 ± 12.08 mg/dL | Serum Glucose Concentration, 30 min (purpose-bred beagles; 0.067 mg kg^−1 oral): 104.31 ± 26.84 mg/dL | Serum Glucose Concentration, 60 min (purpose-bred beagles; 0.067 mg kg^−1 oral): 104.27 ± 17.85 mg/dL | Serum Glucose Concentration, 120 min (purpose-bred beagles; 0.067 mg kg^−1 oral): 79.65 ± 11.69 mg/dL | Serum Glucose Concentration, −60 min (purpose-bred beagles; 0.067 mg kg^−1 oral): 98.64 ± 7.63 mg/dL | Serum Glucose Concentration, 0 min (purpose-bred beagles; 0.067 mg kg^−1 oral): 91.58 ± 6.49 mg/dL | Serum Glucose Concentration, 15 min (purpose-bred beagles; 0.20 mg kg^−1 oral): 96.71 ± 7.21 mg/dL | Serum Glucose Concentration, 30 min (purpose-bred beagles; 0.20 mg kg^−1 oral): 105.48 ± 18.67 mg/dL | Serum Glucose Concentration, 60 min (purpose-bred beagles; 0.20 mg kg^−1 oral): 101.75 ± 14.83 mg/dL | Serum Glucose Concentration, 120 min (purpose-bred beagles; 0.20 mg kg^−1 oral): 76.10 ± 7.91 mg/dL | Serum Glucose Concentration, −60 min (purpose-bred beagles; 0.20 mg kg^−1 oral): 97.02 ± 7.61 mg/dL | Serum Glucose Concentration, 0 min (purpose-bred beagles; 0.20 mg kg^−1 oral): 84.65 ± 7.98 mg/dL | Serum Glucose Concentration, 15 min (purpose-bred beagles; 0.67 mg kg^−1 oral): 109.94 ± 17.55 mg/dL | Serum Glucose Concentration, 30 min (purpose-bred beagles; 0.67 mg kg^−1 oral): 109.04 ± 26.58 mg/dL | Serum Glucose Concentration, 60 min (purpose-bred beagles; 0.67 mg kg^−1 oral): 106.79 ± 11.98 mg/dL | Serum Glucose Concentration, 120 min (purpose-bred beagles; 0.67 mg kg^−1 oral): 76.95 ± 11.53 mg/dL | Serum Glucose Concentration, −60 min (purpose-bred beagles; 0.67 mg kg^−1 oral): 97.70 ± 5.27 mg/dL | Serum Glucose Concentration, 0 min (purpose-bred beagles; 0.67 mg kg^−1 oral): 87.08 ± 6.03 mg/dL | Serum Glucose Concentration, 15 min (purpose-bred beagles; 2.0 mg kg^−1 oral): 104.49 ± 9.60 mg/dL | Serum Glucose Concentration, 30 min (purpose-bred beagles; 2.0 mg kg^−1 oral): 112.86 ± 9.82 mg/dL | Serum Glucose Concentration, 60 min (purpose-bred beagles; 2.0 mg kg^−1 oral): 108.81 ± 6.77 mg/dL | Serum Glucose Concentration, 120 min (purpose-bred beagles; 2.0 mg kg^−1 oral): 71.06 ± 5.49 mg/dL | Serum Glucose Concentration, −60 min (purpose-bred beagles; 2.0 mg kg^−1 oral): 92.21 ± 7.11 mg/dL | Serum Glucose Concentration, 0 min (purpose-bred beagles; 2.0 mg kg^−1 oral): 85.10 ± 4.74 mg/dL | Plasma volume, Day 7 (Sprague-Dawley rats; rats after 7 days pioglitazone diet, group mean ± SEM): 54.7 ± 0.6 % of blood volume | Plasma volume, Day 1 (Sprague-Dawley rats; rats on 0.03% pioglitazone diet, by hematocrit, group mean ± SEM): 52.9 ± 0.5 % of blood volume | Effect on pioglitazone-mediated plasma expansion (conclusion) (Sprague-Dawley rats; rats, 7 days): substantially attenuates pioglitazone-mediated plasma expansion | Body Weight (%), Δ (percent mass gain) (Sprague-Dawley rats; [1]): 4.8 ± 1.3 % | Body Weight (g), Δ (Sprague-Dawley rats; [1]): 17.5 ± 4.7 g | Body Weight (%), Δ (percent mass gain) (Sprague-Dawley rats; rats, day 1 to day 7, mean ± SEM, listed as bexagliflozin): 4.8% | Plasma volume, Δ (day 1 to day 7) (Sprague-Dawley rats; rats, pioglitazone diet, group mean ± SEM): 1.8 ± 0.8 % of blood volume | Body Weight (g), Day 1 (Sprague-Dawley rats; [2]): 371.7 ± 5.0 ^ g | Body Weight (g), Day 7 (Sprague-Dawley rats; [2]): 389.2 ± 5.7 ^†† g | Body Weight (%), Day 1 (Sprague-Dawley rats; [3]): 100 ± 0 ^ % | Body Weight (%), Day 7 (Sprague-Dawley rats; [3]): 104.8 ± 1.3 ^†† % | % of the maximum pharmacodynamic effect (cats; cats, dose 200 μg kg^−1, based on results in purpose-bred cats): 28% | % of the maximum pharmacodynamic effect (cats; cats, dose 400 μg kg^−1): 44% | % of the maximum pharmacodynamic effect (cats; cats, dose 800 μg kg^−1): 61% | % of the maximum pharmacodynamic effect (cats; cats, dose 1600 μg kg^−1): 76% | % of the maximum pharmacodynamic effect (cats; cats, dose 3200 μg kg^−1): 86% | % of the maximum pharmacodynamic effect (cats; cats, dose 6400 μg kg^−1): 93% | % of the maximum pharmacodynamic effect (cats; cats, dose 12800 μg kg^−1): 96% | % of the maximum pharmacodynamic effect (cats; cats, dose 25600 μg kg^−1): 98% | ED50 for urinary glucose excretion (cats; cats, tablets of varying strengths, simple logistic model): approximately 0.5 mg kg^−1 | Emax for urinary glucose excretion (cats; healthy cats): 2.21 g of glucose per kg of body mass
